The source of these data is patent publication US8697376B2, “Synthetic protease substrates, assay methods using such substrates and kits for practicing the assay” (Lifesensors, INc., priority 2010, dated 2014).

The subject of the assay is DUBs immobilized on a Nexterion slide H. Put plainly: Microarray-based assay: cleavage and label transfer to immobilized DUBs. It counts as biochemical. The settings on record: 35 DUBs arrayed as triplicate spots; FIG. 5. As for the experimental part: Since one of the primary uses for the substrates of the invention is localization of active deubiquitylases immobilized in a microarray-type format, i.e. solid phase assay, each of the substrates was tested for its ability to be cleaved and subsequently transfer label to DUBs immobilized on a Nexterion slide H (Schott). Thirty-five (35) DUBs were arrayed as a series of triplicate spots on the slide (see Table 6 for a map of the array) Three identical arrays were constructed on each slide. Several features that were common amongst each array on a given slide and between slides are shown boxed in red and numbered 1-7. […] It should be noted that the enzymes (and antibodies) were coupled 1) at different concentrations and 2) by covalent attachment through surface exposed lysines.

Consider ubiquitin-vinylsulfone, for which the “immobilized enzymes labeled (positive features) on the microarray” value is recorded as “all of the immobilized proteins were labeled”.
